Measurements taken from article PMC6220303 (EMBO Molecular Medicine, 2018).
Read-outs that look alike come from different tables or passages of the source.

Assay: clinical
Assay type: in vivo, human
Conditions: for Mean concentration: AUC divided by 24 hours; for concentration at 3 months: read-out: steady-state plasma level
Experimental: The lower limit of quantification (LLOQ) was 1 ng/ml in plasma and 2 ng/ml in urine and CSF, except for the 3‐month study where the method for CSF was more sensitive (LLOQ 0.1 ng/ml). Plasma PK parameters were calculated using actual recorded sampling times and non‐compartmental methods with Phoenix WinNonlin version 6.4 (Certara, Inc., Princeton, NJ, USA).
For further details, see the Appendix Table S10 in Appendix and the accompanying clinical protocols synopsis (Appendix Table S11).

[1] = single dose 1250 mg, adults (2), individual data points

SMILES: C[C@@]1(c2nc(NC(=O)c3ncc(C(F)(F)F)cc3Cl)ccc2F)CO[C@@](C)(C(F)(F)F)C(N)=N1 [CNP520]
- Mean concentration (2 mg, 3 months, Day 91): 25.6 nM
- Mean concentration (10 mg, 3 months, Day 91): 123 nM
- Mean concentration (10 mg, 14 days, Day 14): 114 nM
- Mean concentration (30 mg, 14 days, Day 14): 292 nM
- Mean concentration (35 mg, 3 months, Day 91): 371 nM
- Mean concentration (85 mg, 3 months, Day 91): 910 nM
- Mean concentration (90 mg, 14 days, Day 14): 762 nM
- Mean concentration (300 mg, 14 days, Day 14): 2312 nM
- Tmax (both sexes, human, plasma, oral, 30 mg, 14 days, Day 14, median (min–max)): 3 h
- Cmax (both sexes, human, plasma, oral, 30 mg, 14 days, Day 14, ≥ 60 years, mean (CV%)): 211 ng/mL
- AUC(0-t) (both sexes, human, plasma, oral, 30 mg, AUC 0–24h, 30 mg, 14 days, Day 14, mean (CV%)): 3580 ng·h/mL
- half-life (both sexes, human, plasma, oral, participants ≥ 60 years of age, single dose, read-out: mean terminal T 1/2): 81.4 to 109 h
- concentration at 3 months (both sexes, human, plasma, oral, 2-mg dose daily, participants ≥ 60 years): 11.9 ng/mL
- concentration at 3 months (both sexes, human, plasma, oral, 2-mg dose daily): 23 nM
- concentration at 3 months (both sexes, human, plasma, oral, 85-mg dose daily, participants ≥ 60 years): 425 ng/mL
- concentration at 3 months (both sexes, human, plasma, oral, 85-mg dose daily): 828 nM
- free C max (human plasma, 85 mg, 3-month study): 48 nM
- Tmax (human, plasma, oral, 2 mg, 3 months, Day 91, median (min–max)): 2.5 h
- Cmax (human, plasma, oral, 2 mg, 3 months, Day 91, ≥ 60 years, mean (CV%)): 16.6 ng/mL
- AUC(0-t) (human, plasma, oral, 2 mg, AUC 0–24h, 2 mg, 3 months, Day 91, mean (CV%)): 313 ng·h/mL
- Tmax (human, plasma, oral, 10 mg, 3 months, Day 91, median (min–max)): 2.5 h
- Cmax (human, plasma, oral, 10 mg, 3 months, Day 91, ≥ 60 years, mean (CV%)): 81 ng/mL
- Tmax (human, plasma, oral, 10 mg, 14 days, Day 14, median (min–max)): 2.53 h
- Cmax (human, plasma, oral, 10 mg, 14 days, Day 14, ≥ 60 years, mean (CV%)): 84.3 ng/mL
- AUC(0-t) (human, plasma, oral, 10 mg, AUC 0–24h, 10 mg, 3 months, Day 91, mean (CV%)): 1500 ng·h/mL
- AUC(0-t) (human, plasma, oral, 10 mg, AUC 0–24h, 10 mg, 14 days, Day 14, mean (CV%)): 1400 ng·h/mL
- Cmax (human, plasma, oral, 10 mg, single dose 10 mg, adults (6), mean (%CV), read-out: Cmax): 20.9 ng/mL
- Tmax (human, plasma, oral, 10 mg, single dose 10 mg, adults (6), median (min–max), read-out: Tmax): 4 h
- AUC(0-inf) (human, plasma, oral, 10 mg, single dose 10 mg, adults (n = 5), mean (%CV)): 948 ng·h/mL
- half-life (human, plasma, oral, 10 mg, single dose 10 mg, adults (n = 5), mean (%CV), read-out: T1/2 (converted)): 61.3 h
- Cmax (human, plasma, oral, 10 mg, single dose 10 mg, adults ≥ 60 years (6), mean (%CV), read-out: Cmax): 16 ng/mL
- Tmax (human, plasma, oral, 10 mg, single dose 10 mg, adults ≥ 60 years (6), median (min–max), read-out: Tmax): 4.02 h
- AUC(0-inf) (human, plasma, oral, 30 mg, single dose 30 mg, adults (12), mean (%CV)): 3070 ng·h/mL
- Cmax (human, plasma, oral, 30 mg, single dose 30 mg, adults (12), mean (%CV), read-out: Cmax): 65.7 ng/mL
- half-life (human, plasma, oral, 30 mg, single dose 30 mg, adults (12), mean (%CV), read-out: T1/2 (converted)): 64.3 h
- Tmax (human, plasma, oral, 30 mg, single dose 30 mg, adults (12), median (min–max), read-out: Tmax): 3.5 h
- Tmax (human, plasma, oral, 35 mg, 3 months, Day 91, median (min–max)): 2.5 h
- Cmax (human, plasma, oral, 35 mg, 3 months, Day 91, ≥ 60 years, mean (CV%)): 237 ng/mL
- AUC(0-t) (human, plasma, oral, 35 mg, AUC 0–24h, 35 mg, 3 months, Day 91, mean (CV%)): 4450 ng·h/mL
- AUC(0-t) (human, plasma, oral, 75 mg, AUC 0–72h, food effect, 75 mg Fasted (10), adults, mean (%CV)): 4450 ng·h/mL
- AUC(0-t) (human, plasma, oral, 75 mg, AUC 0–72h, food effect, 75 mg Fed (10), adults, mean (%CV)): 4870 ng·h/mL
- Cmax (human, plasma, oral, 75 mg, food effect, 75 mg Fasted (10), adults, mean (%CV), read-out: Cmax): 164 ng/mL
- Tmax (human, plasma, oral, 75 mg, food effect, 75 mg Fasted (10), adults, median (min–max), read-out: Tmax): 3.5 h
- Cmax (human, plasma, oral, 75 mg, food effect, 75 mg Fed (10), adults, mean (%CV), read-out: Cmax): 179 ng/mL
- Tmax (human, plasma, oral, 75 mg, food effect, 75 mg Fed (10), adults, median (min–max), read-out: Tmax): 4.04 h
- Tmax (human, plasma, oral, 85 mg, 3 months, Day 91, median (min–max)): 2.5 h
- Cmax (human, plasma, oral, 85 mg, 3 months, Day 91, ≥ 60 years, mean (CV%)): 602 ng/mL
- AUC(0-t) (human, plasma, oral, 85 mg, AUC 0–24h, 85 mg, 3 months, Day 91, mean (CV%)): 11200 ng·h/mL
- Tmax (human, plasma, oral, 90 mg, 14 days, Day 14, median (min–max)): 3 h
- Cmax (human, plasma, oral, 90 mg, 14 days, Day 14, ≥ 60 years, mean (CV%)): 581 ng/mL
- AUC(0-t) (human, plasma, oral, 90 mg, AUC 0–24h, 90 mg, 14 days, Day 14, mean (CV%)): 9380 ng·h/mL
- AUC(0-inf) (human, plasma, oral, 90 mg, single dose 90 mg, adults (6), mean (%CV)): 7190 ng·h/mL
- Cmax (human, plasma, oral, 90 mg, single dose 90 mg, adults (6), mean (%CV), read-out: Cmax): 138 ng/mL
- half-life (human, plasma, oral, 90 mg, single dose 90 mg, adults (6), mean (%CV), read-out: T1/2 (converted)): 66.2 h
- Tmax (human, plasma, oral, 90 mg, single dose 90 mg, adults (6), median (min–max), read-out: Tmax): 3.5 h
- Cmax (human, plasma, oral, 90 mg, single dose 90 mg, adults ≥ 60 years (6), mean (%CV), read-out: Cmax): 172 ng/mL
- Tmax (human, plasma, oral, 90 mg, single dose 90 mg, adults ≥ 60 years (6), median (min–max), read-out: Tmax): 2.02 h
- Tmax (human, plasma, oral, 300 mg, 14 days, Day 14, median (min–max)): 2.51 h
- Cmax (human, plasma, oral, 300 mg, 14 days, Day 14, ≥ 60 years, mean (CV% 25.1)): 1710 ng/mL
- AUC(0-t) (human, plasma, oral, 300 mg, AUC 0–24h, 300 mg, 14 days, Day 14, mean (CV%)): 28300 ng·h/mL
- AUC(0-inf) (human, plasma, oral, 300 mg, single dose 300 mg, adults (6), mean (%CV)): 23500 ng·h/mL
- Cmax (human, plasma, oral, 300 mg, single dose 300 mg, adults (6), mean (%CV), read-out: Cmax): 498 ng/mL
- half-life (human, plasma, oral, 300 mg, single dose 300 mg, adults (6), mean (%CV), read-out: T1/2 (converted)): 57.9 h
- Tmax (human, plasma, oral, 300 mg, single dose 300 mg, adults (6), median (min–max), read-out: Tmax): 6 h
- Cmax (human, plasma, oral, 300 mg, single dose 300 mg, adults ≥ 60 years (18), mean (%CV), read-out: Cmax): 440 ng/mL
- Tmax (human, plasma, oral, 300 mg, single dose 300 mg, adults ≥ 60 years (18), median (min–max), read-out: Tmax): 5.04 h
- AUC(0-inf) (human, plasma, oral, 750 mg, single dose 750 mg, adults (6), mean (%CV)): 90100 ng·h/mL
- Cmax (human, plasma, oral, 750 mg, single dose 750 mg, adults (6), mean (%CV), read-out: Cmax): 1150 ng/mL
- half-life (human, plasma, oral, 750 mg, single dose 750 mg, adults (6), mean (%CV), read-out: T1/2 (converted)): 83.8 h
- Tmax (human, plasma, oral, 750 mg, single dose 750 mg, adults (6), median (min–max), read-out: Tmax): 2.5 h
- Cmax (human, plasma, oral, 750 mg, single dose 750 mg, adults ≥ 60 years (20), mean (%CV), read-out: Cmax): 1120 ng/mL
- Tmax (human, plasma, oral, 750 mg, single dose 750 mg, adults ≥ 60 years (20), median (min–max), read-out: Tmax): 3 h
- AUC(0-inf) (human, plasma, oral, 1250 mg, single dose 1250 mg, adults (2), individual data points): 168000 ng·h/mL
- Cmax (human, plasma, oral, 1250 mg, single dose 1250 mg, adults (2), individual data points, read-out: Cmax): 2850 ng/mL
- half-life (human, plasma, oral, 1250 mg, single dose 1250 mg, adults (2), individual data points, read-out: T1/2 (converted)): 76.4 h
- Tmax (human, plasma, oral, 1250 mg, single dose 1250 mg, adults (2), individual data points, read-out: Tmax): 4 h
- Tmax (human, plasma, oral, after dose, human pharmacokinetic studies, read-out: T max): 1 to 8 h
- half-life (human, plasma, oral, healthy adult participants, single dose, read-out: mean terminal T 1/2): 61.3 to 83.8 h
- AUCinf [1]: 184000 ng·h/mL
- Cmax [1]: 2890 ng/mL
- T1/2 [1]: 86.1 h
- Tmax [1]: 8.00 h
- unbound concentration of CNP520 in plasma (typically, at pharmacologically active doses in animals and humans): below 0.1 μM
